Consider four molecules from PMC11969544, “Structure-Based Mechanism and Specificity of Human Galactosyltransferase β3GalT5” (Journal of the American Chemical Society, 2025).

Data set [1] concerns the target T1, human β3GalT5 (β1,3-galactosyltransferase 5) (Homo sapiens, UniProt Q9Y2C3).
T1 construct: gene B3GALT5; recombinant luminal catalytic domain Phe31-Pro308 (crystallised construct), transmembrane domain removed; N-glycosylated
T1 sequence (Q9Y2C3 31-308): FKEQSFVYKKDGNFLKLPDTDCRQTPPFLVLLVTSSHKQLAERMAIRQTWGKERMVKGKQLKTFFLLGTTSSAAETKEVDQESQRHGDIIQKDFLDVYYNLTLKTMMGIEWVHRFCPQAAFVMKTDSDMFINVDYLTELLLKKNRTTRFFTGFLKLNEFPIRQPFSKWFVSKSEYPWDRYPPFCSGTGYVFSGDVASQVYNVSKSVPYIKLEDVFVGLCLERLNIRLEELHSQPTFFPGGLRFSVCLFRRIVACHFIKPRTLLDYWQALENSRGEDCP
Put plainly: X-ray crystallography (cocrystallisation). Format: binding. As to conditions: Mn2+; donor site; inert donor analogue.

The target of data set [2] is T1, human β3GalT5 (β1,3-galactosyltransferase 5). Description: X-ray crystallography. Format: binding. As to conditions: Mn2+; donor site; with Gb5 glycan bound.
Data set [3] shares this target. Put plainly: galactosyltransfer kinetics (details in supplement). Format: biochemical. To be noted: acceptor; donor UDP-Gal; crystal structure of the complex also solved.
Substrate in data set [4]: CC(=O)N[C@H]1[C@H](O[C@H]2[C@@H](O)[C@@H](CO)O[C@H](O[C@H](C)[C@H](N)C(=O)O)[C@@H]2NC(C)=O)O[C@H](CO)[C@@H](O)[C@@H]1O
Described as above. Format: biochemical, Homo sapiens. To be noted: acceptor; donor UDP-Gal; crystal structure of the complex also solved.

Substrate in data set [5]: COC1O[C@H](CO)[C@H](O)[C@H](O[C@@H]2O[C@H](CO)[C@@H](O)[C@H](O)[C@H]2NC(C)=O)[C@H]1O
The data set is described as above. Format: biochemical, Homo sapiens. As to conditions: acceptor; donor UDP-Gal; crystal structure of the complex also solved.

For `O=c1ccn([C@@H]2O[C@H](COP(=O)(O)OP(=O)(O)O[C@H]3O[C@H](CO)[C@H](O)[C@H](O)[C@H]3F)[C@@H](O)[C@H]2O)c(=O)[nH]1` [UDP-2FGal, UDP-2-deoxy-2-fluoro-α-D-galactopyranose], in data set [1], the “X-ray crystallography (cocrystallisation)” value is listed as “employed an inert analog of the sugar nucleotide donor, UDP-2-deoxy-2-fluoro-α-D-galactopyranose (UDP-2FGal) for cocrystallization with β3GalT5”.
`O=c1ccn([C@@H]2O[C@H](COP(=O)(O)OP(=O)(O)O)[C@@H](O)[C@H]2O)c(=O)[nH]1` [UDP]: the X-ray crystallography entry in data set [2] was “β3GalT5 cocrystallized with UDP and soaked with the product Gb5 (SSEA3) glycan”.
For the molecule `CC(=O)N[C@H]1[C@H](O[C@H]2[C@@H](O)[C@@H](CO)O[C@H](O[C@@H]3[C@H](O)[C@@H](O)[C@H](O[C@H]4[C@H](O)[C@@H](O)C(O)O[C@@H]4CO)O[C@@H]3CO)[C@@H]2O)O[C@H](CO)[C@H](O)[C@@H]1O` (some centres unmarked) [Gb4 glycan], the Km in data set [3] was found to be 2000 µM.

B1: human β3GalT5 (β1,3-galactosyltransferase 5) (Homo sapiens) (protein)
chain: T1 sequence (Q9Y2C3 31-308)
notes: recombinant luminal catalytic domain Phe31-Pro308 (crystallised construct), transmembrane domain removed; N-glycosylated
For B1, the Michaelis-Menten constant (Km) was 750 µM in data set [4] and 500 µM in data set [5].
